Experimental data published in article PMC7570567, “Attempts to Target Staphylococcus aureus Induced Osteomyelitis Bone Lesions in a Juvenile Pig Model by Using Radiotracers” (Molecules, 2020).
One block for each compound: values may come before it. Where a SMILES comes first, the peptide text is derived from it. Bridges are numbered along the chain shown (N, C = ends). The star is where a group is joined. DOTA = O=C(O)CN1CCN(CC(=O)O)CCN(CC(=O)*)CCN(CC(=O)O)CC1; AEEA = NCCOCCOCC(=O)O

Legend:
[1] = tested on: Staphylococcus aureus induced osteomyelitis (OM) lesions; assay: Static PET/CT tracer uptake in S. aureus induced osteomyelitis lesions, juvenile pig model; details: for Standard uptake values (SUV) in OM lesions: static whole-body PET/CT about 1 h after i.v. tracer injection, day 6-7 after S. aureus S54F9 inoculation
From the text: (§1) Fifteen domestic pigs, all clinically healthy, specific pathogen-free Danish Landrace Yorkshire cross-bred female pigs aged 8–9 weeks weighing 18.3–24.5 kg, were purchased from local commercial pig farmers. After at least one week of acclimatization, the pigs fasted over-night. Then they were premedicated with s-ketamine (Pfizer, Ballerup, Denmark) and midazolam (B. Braun Medical, Frederiksberg, Denmark) intramuscularly and anesthetized with propofol (B. Braun Medical, Frederiksberg, Denmark) intravenously. Finally, they were inoculated with a well-characterized porcine strain of S. aureus S54F9 (approximately 10,000 CFU/kg body weight) into the femoral artery of the right hind limb to induce OM in that limb, as described elsewhere. […] The pigs were all treated with 30–45 µg/kg buprenorphine (Indivior, Berkshire, United Kingdom) intramuscularly thrice daily from the time before inoculation and until scanning at day 6 and 7 after inoculation. After scanning, pigs were euthanized with an overdose of pentobarbitone (Scan Vet Animal Health, Fredensborg, Denmark) while still under anesthesia. Humane endpoints were: anorexia for more than 24 h, superficial respiration, the inability to stand up, or signs of systemic infection. […] The environment was characterized by a room temperature of 20 °C, relative humidity of 51–55%, 12 h in light/12 h in dark cycles, an exchange of air at least eight times per hour. Pigs were fasted overnight before anesthesia.
(§2) Osteomyelitis was verified by CT imaging, necropsy, histology, and/or bacterial cultivation.
(§3) The average injected activity was a median of 760 MBq (range 348–848 MBq) of [^68Ga]Ga-DOTA-K-A9, corresponding to ~17–46 MBq/kg and median 475 MBq (range 65–500 MBq) of [^68Ga]Ga-DOTA-GSGK-A11, corresponding to ~3–23 MBq/kg. PET was performed median ~60 min (60–61min) after injection of [^68Ga]Ga-DOTA-K-A9 (pigs 4–6, Table 1) and ~62 min (62–62 min) after injection of [^68Ga]Ga-DOTA-GSGK-A11 (pigs 7–8, Table 1) in the jugular vein.
(§4) Fluoride-18 was produced via the ^18O (p,n) ^18F nuclear reaction using a cyclotron. The target content was passed through a QMA-light Sep-Pak (Waters, Hedehusene, Denmark) to trap F-18. The solution was washed with 10 mL sterile water for injection (10 mL) to remove any residual [^18O]H2O and then dried with an argon stream. [^18F]NaF was set free by eluting the QMA Sep-Pak with 10 mL NaHCO3 and 10–20 mL air into the product vial. The average injected activity was as median 184 MBq (range 165–196 MBq), corresponding to ~8–10 MBq/kg. The PET was performed ~57 min (33–78 min) after injection of [^18F]NaF (pigs 9–13, Table 1).
(§5) The average injected activity was median 117 MBq (range 109–120 MBq), corresponding to ~5–6 MBq/kg.
(§6) The average injected activity was as median 178 MBq (range 126–253 MBq), corresponding to ~8–12 MBq/kg. The PET was performed ~72 min (60–126 min, early scan) and 139 min (118–186 min, late scan) after injection of [^68Ga]Ga-DOTA-Siglec-9 (pigs 1–3 and 12–15, Table 1).
(§7) ^18F were produced at the PET Center Aarhus using either a PETtrace 800 series cyclotron (GE Healthcare, Uppsala, Sweden) or a Cyclone 18/18 cyclotron (IBA, Louvain La Neuve, Belgium). [^18F]FDG was produced by a standard procedure applying a GE Healthcare MX Tracerlab synthesizer, Mx cassettes supplied by Rotem Industries (Arava, Israel), and chemical kits supplied by ABX GmbH (Radeberg, Germany). […] The median injected activity was 125 MBq (range 94–497 MBq), corresponding to ~5–24 MBq/kg. The PET was performed ~61 min (50–76 min) after injection of [^18F]FDG (pigs 1–15, Table 1).
(§8) The pigs were scanned at locations; Aalborg and Aarhus PET Centers. […] They were in propofol anesthesia and mechanically ventilated throughout the scan. Reflexes, pulse, oxygen saturation, and body temperature were monitored.

[2] = tested on: S. aureus inoculation abscess / soft tissue infection; assay: PET uptake in infected soft tissue (inguinal inoculation abscess, lymph node) of pigs
From the text: as §1, §6, §7, §8

[3] = Static PET/CT tracer uptake in S. aureus induced osteomyelitis lesions, juvenile pig model; details: pig, in vivo, iv, Standard uptake values (SUV) in OM lesions
From the text: as §1, §2, §3, §4, §5, §6, §7, §8

[4] = Whole-body PET biodistribution and excretion of tracers in pigs (MIPs); format: in vivo, pig
From the text: Reflexes, pulse, oxygen saturation, and body temperature were monitored. […] In the present study, only the whole-body static PET/CT scans are presented.

[5] = tested on: vascular adhesion protein 1, VAP-1; details: cited from earlier work
From the text: The PET tracer [^68Ga]Ga-DOTA-Siglec-9 binds to a protein involved in leukocyte extravasations (vascular adhesion protein 1, VAP-1). Only recently, we have analyzed the dynamic data. […] However, the distribution volume for the uptake of soft tissue infections was elevated, concluding the tracer has a role for soft tissue infections ...

osteomyelitis lesions = details: pigs; cited from earlier work
From the text: We have previously used ^99mTc-label […] ([^99mTc]Tc-DPD) to examine bone remodeling in pigs. […] We, therefore, moved on to use [^18F]NaF in the present study because [^18F]NaF though acting through similar uptake mechanisms as [^99mTc]Tc-DPD, [^18F]NaF is supposed to have a two-fold higher uptake in bones and a better sensitivity for metastatic osteoblastic metastases.

Compound: OC[C@H]1OC(O)[C@H]([18F])[C@@H](O)[C@@H]1O (stereo partly drawn) [[^18F]FDG, [^18F]-fluorodeoxyglucose]
Standard uptake values (SUV) in OM lesions ([1]; pig 1, 3 lesions): 4–7.3 | Standard uptake values (SUV) in OM lesions ([1]; pig 2, 4 lesions): 2.3–5.9 | Standard uptake values (SUV) in OM lesions ([1]; pig 3, 5 lesions): 2.9–4.5 | Standard uptake values (SUV) in OM lesions ([1]; pig 4, 2 lesions): 10.5–16.3 | Standard uptake values (SUV) in OM lesions ([1]; pig 5, 3 lesions): 3.4–9 | Standard uptake values (SUV) in OM lesions ([1]; pig 6, 4 lesions): 4–9.2 | Standard uptake values (SUV) in OM lesions ([1]; pig 7, 3 lesions): 3–6.4 | Standard uptake values (SUV) in OM lesions ([1]; pig 8, 2 lesions): 2.4–8 | Standard uptake values (SUV) in OM lesions ([1]; pig 9, 4 lesions): 5.4–5.9 | Standard uptake values (SUV) in OM lesions ([1]; pig 10, 3 lesions): 4.4–5.1 | Standard uptake values (SUV) in OM lesions ([1]; pig 11, 5 lesions): 1–3.9 | Standard uptake values (SUV) in OM lesions ([1]; pig 12, 1 lesion): 6.1 | Standard uptake values (SUV) in OM lesions ([1]; pig 13, 2 lesions): 7.8–10.1 | Standard uptake values (SUV) in OM lesions ([1]; pig 14, 3 lesions): 4–7.8 | Standard uptake values (SUV) in OM lesions ([1]; pig 15, 1 lesion): 3.6 | Number of OM lesions in which the tracer accumulated distinguishably ([1]; static PET ~61 min after injection, pigs 1-15): 45 of the 45 | Uptake in hyperplasic medial iliacus lymph node of the infected side compared to the lymph node in the non-infected left hind limb ([2]; pig 12): increased | Change of activity in the margin of the abscess in the static images ([2]; pig 12, static images acquired after 60 min, compared to 10-30 min): increased slightly

Compound: CC(C)C[C@@H]1NC(=O)CNC(=O)[C@H](CCCNC(=N)N)NC(=O)[C@H](Cc2c[nH]c3ccccc23)NC(=O)[C@H](CO)NC(=O)[C@H](CC(C)C)NC(=O)[C@H](CO)NC(=O)[C@H](CC(C)C)NC(=O)[C@H](CCCNC(=N)N)NC(=O)[C@H](C)NC(=O)[C@@H](NC(=O)COCCOCCNC(=O)CN2CCN(CC(=O)O)CCN(CC(=O)O)CCN(CC(=O)O)CC2)CSSC[C@@H](C(=O)N2CCC[C@H]2C(=O)N[C@@H](CO)C(=O)N[C@@H](CCCCN)C(N)=O)NC(=O)[C@H](CC(C)C)NC(=O)[C@H]([C@@H](C)O)NC1=O [[^68Ga]Ga-DOTA-Siglec-9, metal not drawn] ({DOTA-AEEA}-CARLSLSWRGLTLCPSK-NH2; disulfide 1-14; N-terminus and C-terminus assumed)
SUV [3]: 1.3 SUV | Tracer accumulation in porcine OM lesions (in words) ([1]; pig, in vivo): no tracer activity | Distribution of the tracer in the body outside OM lesions ([4]; pig, in vivo): accumulated in dorsocaudal parts of both lungs | Uptake in the margin of an inguinal abscess adjacent to the S. aureus inoculation site ([2]; pig 12, images acquired 10 to 30 min after tracer injection): marked | Change of activity in the margin of the abscess in the static images ([2]; pig, in vivo): decreased | Distribution volume for the uptake of soft tissue infections ([5]; pig, in vivo): elevated | Metabolism of the tracer in vivo ([5]; pig, in vivo): metabolized very quickly | Uptake in OM ([5]; pig, in vivo): no increased | Kinetics of uptake ([5]; pigs, modeled with the rev2TCM (4 k-parameters)): reversible kinetics

Standard uptake values (SUV) in OM lesions ([1]; pig 9, 4 lesions): 9.2–13.6 | Standard uptake values (SUV) in OM lesions ([1]; pig 10, 3 lesions): 15.2–17 | Standard uptake values (SUV) in OM lesions ([1]; pig 11, 5 lesions): 5.7–19.2 | Standard uptake values (SUV) in OM lesions ([1]; pig 12, 1 lesion): 19.8 | Standard uptake values (SUV) in OM lesions ([1]; pig 13, 2 lesions): 7.8–17.6 | Tracer accumulation in porcine OM lesions (in words) ([1]; static PET, K-A9 9 lesions, GSGK-A11 5, NaF 15, ubiquicidin 12, Siglec-9 19 lesions (early and late images)): no accumulation | Route of excretion ([4]; pigs, whole-body PET, maximum intensity projections): excreted by the kidneys
Compound: [18F-].[Na+] [[^18F]NaF]
Distribution of the tracer in the body outside OM lesions ([4]; pigs, whole-body PET/CT): distributed to the growth zones of the bones

Compound: ^99mTc-label methylene diphosphate [[^99mTc]Tc-DPD]
Tracer uptake in the osteomyelitis lesions (osteomyelitis lesions): did not observe any tracer uptake
